The record followed here is patent US6498164B1, “Barbituric acid derivative and preventive and therapeutic agent for bone and cartilage containing the same” (Aventis Pharma S.A., priority 1998, dated 2002).

The test has as its system osteocytes containing osteoclasts. The test can be described thus: Pit formation assay (bone resorption inhibition on ivory slices). Conditions: compound 1 × 10^−5 M, ivory piece, 3 days culture; for inhibition at 10 µM: Mus musculus, Osteoclast, 72 h, 0% = no compound with rPTH 1×10^−8 M, 100% = no resorption cavity, read-out: Inhibiting rate; for Number of resorption cavity (mean ± SD): rPTH 1×10^−8 M. The test is classed as cell-based, ICR mice. The method, then: ICR mice 11-12 days old (Charles River) were subjected to euthanasia through ether anesthesia, and disinfected by dipping in 70% ethanol immediately. Subsequently, a femur and a shank of a mouse was removed, chopped in an -MEM culture medium (Flow Labs Corp.) containing 5% FBS (Irving Scientific Corp.), 100 U/mL penicillin, and 100 µg/mL streptomycin. Supernatant obtained by pipetting was collected, washed with culture medium solution, suspended in a solution containing 5% FBS and -MEM culture medium to yield osteocytes containing osteoclasts. Supernatant of osteocyte suspending solution was taken 3 minutes after standing still to pass through meshes (Cell Strainer, 70 m, Falcon Corp.). The filtrate was adjusted to the concentration of 1 107 cells/mL to use for pit formation assay.
(2) Test by the pit formation assay
An ivory piece was cut into slices in 150 m thickness by using a precision, low speed cutter (Buehler Corp.) and punched to make a cylinderial holes in 6 mm diameter. The ivory piece was dipped in 70% ethanol, treated by sonication for 5 minutes twice, and washed with sterilized PBS three times and with culture medium twice. The ivory piece was put in pits of a 96-pit culture plate (Falcon Corp.), 100 μl of culture medium, that contains a chemical compound of the present invention adjusted to a concentration of 2×10^−5 M, was poured into each pit, and 100 μL of culture medium, that contains 1×10^7 osteocytes/mL previously prepared, into each pit (the final concentration of the compound was 1×10^−5 M), and finally cultivation was carried out in an incubator under 37° C. and 10% CO2 for 3 days. Then cells on an ivory piece were removed in 2 M sodium hydroxide solution, washed with water and methanol to stain resorption cavity with Coomassie Brilliant Blue and count numbers of absorbed cavities under a microscope. The inhibition rate of bone resorption was calculated on the basis that resorption cavity was assumed 0% in the case of no addition of the compound under the presence of rPTH (1×10^−8 M) in the solution and the case of no resorption cavity was assumed 100%. A good result was yielded in the same experiment with variation of resorption cavity numbers among experimental groups due to a difference among proportions of various cell in the solution, in which osteocytes were suspended, and also among the lot numbers of used animals.

With `CC(C)CC(=O)C1C(=O)N(Cc2ccccc2)C(=O)N(Cc2ccccc2)C1=O` [Compound No. 1, 1,3-Dibenzyl-5-(3-methyl-1-oxobutyl)barbituric Acid], the inhibition at 10 µM was 99.2% and the “Number of resorption cavity (mean ± SD)” value was 1.0 ± 0.5.
For `O=C(Cc1ccccc1)C1C(=O)N(Cc2ccccc2)C(=O)N(Cc2ccccc2)C1=O` [Compound No. 2, 1,3-Dibenzyl-5-(phenylacetyl)barbituric Acid], in that order: 99% and 2.2 ± 0.6.
For `O=C(Cc1cccs1)C1C(=O)N(Cc2ccccc2)C(=O)N(Cc2ccccc2)C1=O` [Compound No. 3, 1,3-Dibenzyl-5-(2-thienylacetyl)barbituric Acid], in that order: 96.7% and 7.0 ± 1.7.
For `CC(C)CCN1C(=O)C(C(=O)CC(C)C)C(=O)N(CCC(C)C)C1=O` [Compound No. 4, 1,3-Bis(3-methylbutyl)-5-(3-methyl-1-oxobutyl)barbituric Acid], in that order: 90.6% and 21.1 ± 4.3.
